Source: patent US9119881B2, “Method of synergistically enhancing the therapeutic efficacy and safety of medication through a combination therapy” (priority 2010, dated 2015)
Marks after values point to notes of the source that are not given here. Blank lines part the entries; values can stand above or below the compound they belong to. Where no end group is shown, it is not given here. The star is where a group is joined. Myristoyl = CCCCCCCCCCCCCC(=O)*

Assays:
PPAR γ = molecular target: T1, PPAR γ (Mus musculus, UniProt P37238); experiment: PPAR γ reporter activity assay in 3T3-L1 preadipocytes; type: cell-based; conditions: 6 hrs, 2′5′-dideoxyadenosine 10 μM, PKAi 30 μM; for ABA-induced PPAR γ activation, effect of inhibitor: ABA 10 μM; for Ros-induced PPAR γ activation, effect of inhibitor: Ros 1 μM
T1 construct: expressed in transfected cells; host or cells: 3T3-L1 pre-adipocytes
T1 sequence (P37238 31-505 limits assumed): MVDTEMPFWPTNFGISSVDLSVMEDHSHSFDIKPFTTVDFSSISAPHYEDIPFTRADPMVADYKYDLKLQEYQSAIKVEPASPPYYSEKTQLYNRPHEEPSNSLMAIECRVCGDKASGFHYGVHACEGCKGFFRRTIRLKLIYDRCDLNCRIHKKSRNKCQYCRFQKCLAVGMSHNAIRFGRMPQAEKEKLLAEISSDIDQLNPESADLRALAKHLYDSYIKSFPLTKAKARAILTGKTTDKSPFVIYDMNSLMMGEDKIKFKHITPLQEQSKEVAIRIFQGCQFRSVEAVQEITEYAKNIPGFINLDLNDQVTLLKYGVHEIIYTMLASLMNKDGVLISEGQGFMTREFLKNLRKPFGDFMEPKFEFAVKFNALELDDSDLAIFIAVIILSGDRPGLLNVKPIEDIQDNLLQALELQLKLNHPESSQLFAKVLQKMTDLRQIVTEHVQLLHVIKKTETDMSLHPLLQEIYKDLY
Description: For 3T3-L1 preadipocytes cells were treated for 6-h with vehicle (DMSO) or Ros (1 μM) with ABA (10 μM), the cAMP-inhibitor 2′5′ dideoxyadenosine (dideoxy, 10 μM), or 14-22 myristolated PKA inhibitor fragment (PKAi, 30 μM). […] Luciferase activity was normalized to pRL activity in the cell extracts and relative luciferase activity was calculated a ratio of the activity in the treatment wells to control wells. Data are represented as mean±standard error.
A pCMX.PPAR γ expression plasmid and a pTKPPRE3x luciferase reporter plasmid driven by the PPRE-containing Acyl-CoA oxidase promoter (kindly provided by Dr. R M. Evans, The Salk Institute, San Diego, Calif.) were purified using Qiagen's Maxi kit (Valencia, Calif.). […] Cells were co-transfected in the […] with 1.5 μg plasmid DNA and 25 ng of pRL reporter control using F-2 transfection reagents (Targeting Systems, Santee, Calif.) according to the manufacturer's protocol. […] Cells were then treated in replicates of 8 with vehicle (DMSO), rosiglitazone (1 or 10 μM; Cayman Chemicals, Arm Arbor, Mich.), or ABA (10 μM; Sigma) with and without 2′5′ dideoxyadenosine (10 μM; Sigma) and 14-22 myristolated PKA inhibitor fragment (PKAi, 30 μM; Sigma). […] Luciferase activity, normalized to pRL activity in the cell extracts was determined by using the Dual Luciferase II reporter assay system (Promega, Madison, Wis.) using a Modulus 96-well luminometer (Turner Biosystems, Sunnyvale, Calif.). All values were normalized to control wells to calculate relative luciferase activity.

[1] = as stated in U.S. Pat. No. 6,515,132; cited from earlier work
[2] = Dietary ABA and rosiglitazone in obese db/db mice: body and organ weights; type: in vivo; conditions: for Final body weight / Ab. WAT % Body Weight / Liver % Body Weight / Sc. WAT % Body Weight: with or without ABA 100 mg/kg diet; for Final body weight: 60 days
Description: Twelve-fifteen week-old BKS.Cg-+Lepr^db/+Lepr^db/OlaHsd (db/db) mice were housed at the animal facilities at Virginia Polytechnic Institute and State University in a room maintained at 75° F., with a 12:12 h light-dark cycle starting from 6:00 AM. All experimental procedures were approved by the Institutional Animal Care and Use Committee of Virginia Polytechnic Institute and State University and met or exceeded requirements of the Public Health Service, National Institutes of Health and the Animal Welfare Act. […] Louis, Mo.) for 60 days. Mice were weighed and fasting (12 h) blood glucose levels were taken weekly. Blood glucose levels were assessed with an ACCU-CHEK® Glucometer (Roche, Indianapolis, Ind.). […] On day 60 mice were sacrificed by CO2 narcosis with secondary thoracotomy. Abdominal WAT, inguinal subcutaneous WAT, and liver were then excised and weighed. Abdominal and subcutaneous WAT were then digested and fractionated.

[3] = db/db mice, Roshi diet (70 mg/kg diet), day 60
[4] = db/db mice, Roslo diet (10 mg/kg diet), day 60

Compound: C[C@H]1O[C@@H](n2cnc3c(N)ncnc32)C[C@@H]1O [2′5′-dideoxyadenosine]
- ABA-induced PPAR γ activation, effect of inhibitor (PPAR γ): prevented
- Ros-induced PPAR γ activation, effect of inhibitor (PPAR γ): no effect

Compound: O=C1NC(=O)C(Cc2ccc3c(c2)CC[C@H](Cc2ccccc2)O3)S1 (stereo partly shown) [Englitazone]
- current minimum effective drug dose [1]: 200 μmol/kg diet

- edema in the interscapular region ([2]; db/db mice fed Ros^hi (70 mg/kg diet)): significant edema
- liver weights (in words) ([2]; db/db mice, day 60, low dose Ros, ABA 100 mg/kg diet): significantly increased
Compound: CN(CCOc1ccc(CC2SC(=O)NC2=O)cc1)c1ccccn1 (stereo not shown) [rosiglitazone]
- Final body weight ([2]; db/db mice, Roshi diet (70 mg/kg diet)): 64.4 ± 2.4^d g
- Ab. WAT % Body Weight [2, 3]: 4.6 ± 0.61^a % Body Weight
- Liver % Body Weight [2, 3]: 6.7 ± 2.3^a % Body Weight
- Sc. WAT % Body Weight [2, 3]: 3.2 ± 0.43 % Body Weight
- Final body weight ([2]; db/db mice, Roslo diet (10 mg/kg diet)): 56.4 ± 2.4^bc g
- Ab. WAT % Body Weight [2, 4]: 6.7 ± 0.61^bc % Body Weight
- Liver % Body Weight [2, 4]: 9.2 ± 0.51^b % Body Weight
- Sc. WAT % Body Weight [2, 4]: 2.4 ± 0.43 % Body Weight
- body weights of the mice (in words) ([2]; db/db mice, both low- and high-dose rosiglitazone, 60-day dietary intervention): significantly increased

- ABA-induced PPAR γ activation, effect of inhibitor (PPAR γ): prevented
- Ros-induced PPAR γ activation, effect of inhibitor (PPAR γ): no effect
Compound: PKAi: 14-22 myristoylated PKA inhibitor fragment (Myristoyl-SGRTGRRNA; UniProt P61925 14-22, looked up, fragment)
